Measurements reported in US20160045505A1, “COMPOUNDS AND COMPOSITIONS FOR THE TREATMENT OF PARASITIC DISEASES” (NOVARTIS AG, priority 2013, published 2016).
Read-outs that look alike come from different tables or passages of the source.

Key:
[1] = tested on: L. donovani HU3 strain in mouse peritoneal macrophages; test: Assay for proliferation of Leishmania parasites in infected mouse peritoneal macrophages (SybrGreen staining, high-content imaging, 5 days); assay type: cell-based, Leishmania donovani; details: L. donovani in mouse peritoneal macrophages, read-out: L. donovani Macrophage EC50
[2] = tested on: Trypanosoma brucei Lister 427 strain, bloodstream form; test: Assay for proliferation of kinetoplastid parasite Trypanosoma brucei (Cell Titer Glo, 48 hours); assay type: cell-based; details: T. brucei Lister 427 bloodstream form, read-out: T. brucei EC50
Excerpt: Assay for Proliferation of Kinetoplastid Parasite Trypanosoma brucei.
The proliferation is quantified by the addition of Cell Titer Glo (Promega®) a luminescent cell viability assay that measures the number of viable cells in culture based on the quantification of cellular ATP amount, which is an indicator of metabolically active cells.
The following assay illustrates the invention without in any way limiting the scope of the invention. This parasite proliferation assay measures the increase in parasite growth using an assay that measures ATP activity, Cell Titer Glo®.
Trypanosoma brucei Lister 427 strain is grown in HMI-9 Trypanosome media for T. brucei bloodstream form. 30 μl of HMI-9 media is dispensed into 384 well assay plates. 200 nl of compounds of the invention (in DMSO), including anti-trypanosome controls (Pentamidine and suramin), are then transferred into the assay plates, as well as DMSO alone to serve as a negative control for inhibition. Then 25 μl of a suspension of T. brucei culture in HMI-9 media is dispensed into the assay plates. The final concentration of parasites in culture corresponds to 1.7% of 0.5 uM ATP activity with Cell Titer Glo® in HMI-9 media. The plates are placed in a 37° C. incubator for 48 hours in an atmospheric environment containing 5% CO2. 40 μl of Cell Titer Glo® is dispensed into the plates. The plates are then read for luminescence. The percentage inhibition of 50%, EC50, is calculated for each compound.

[3] = tested on: Leishmania donovani axenic amastigote parasites; test: Leishmania donovani axenic amastigote proliferation assay (Cell TiterGlo luminescence, 2 day incubation); assay type: cell-based; details: read-out: L. donovani amastigotes EC50
[4] = Leishmania donovani, Peritoneal macrophage
[5] = Leishmania donovani, L. donovani axenic amastigotes
[6] = Trypanosoma brucei, inhibition of proliferation
[7] = Leishmania donovani, axenic amastigotes, inhibition of proliferation
[8] = Leishmania donovani, Peritoneal macrophage, inhibition of proliferation

| EC50 ([2]; Trypanosoma brucei) [nM] | EC50 [3, 5] [nM] | Compound | EC50 [2, 6] [nM] | EC50 [3, 7] [nM] | EC50 [1, 8] [nM] | also measured |
| --- | --- | --- | --- | --- | --- | --- |
| 76 | 211 | O=C(Nc1cnc2nc(-c3cc(NC(=O)N4CCCC4)ccc3F)cn2c1)OCc1ccccc1 [Compound 512, benzyl (2-(2-fluoro-5-(pyrrolidine-1-carboxamido)phenyl)imidazo[1,2-a]pyrimidin-6-yl)carbamate] |  |  |  | EC50 [1, 4]: 2990 nM |
|  |  | O=C(Nc1ccc(F)c(-c2cn3cc(Br)cnc3n2)c1)C1CCCC1 [Compound 196, N-(3-(6-bromoimidazo[1,2-a]pyrimidin-2-yl)-4-fluorophenyl)cyclopentanecarboxamide] | 1860 | 6520 |  |  |
|  |  | Cc1ccc(C(=O)Nc2cccc(-c3cn4cc(NC(=O)OC(C)C)cnc4n3)c2)o1 [Compound 13] | 181 | 1720 | 810 |  |
|  |  | CC(C)OC(=O)Nc1cnc2nc(-c3cccc(NC(=O)N(C)C)c3)cn2c1 [Compound 20] | 2000 | 13400 | 7900 |  |
| > 50000 | > 25000 | CC(C)Nc1ccc(F)c(-c2cn3cc(NC(=O)OC(C)C)cnc3n2)c1 [Compound 523] |  |  |  | EC50 [1, 4]: 37700 nM |
|  |  | CC(C)OC(=O)Nc1cnc2nc(-c3cc(NC(=O)N4CCC4)ccc3F)cn2c1 [Compound 226] | 37 | 42 | 384 |  |
|  |  | CCOC(=O)Nc1cccc(-c2cn3cc(NC(=O)OC(C)C)cnc3n2)c1 [Compound 10] | 231 | 2980 | 2360 |  |
|  |  | CCN(CC)C(=O)Nc1cccc(-c2cn3cc(NC(=O)OC(C)C)cnc3n2)c1 [Compound 16] | 1640 | > 25000 | 14000 |  |
|  |  | Cc1ccc(C(=O)Nc2ccc(Cl)c(-c3cn4cc(-c5ccsc5)cnc4n3)c2)o1 [Compound 30] | 86.8 | 101 | 172 |  |
|  |  | CC(C)OC(=O)Nc1cnc2nc(-c3cc(NC(=O)N4CCC(F)(F)C4)ccc3Cl)cn2c1 [Compound 4, isopropyl (2-(2-chloro-5-(3,3-difluoropyrrolidine-1-carboxamido)phenyl)imidazo[1,2-a]pyrimidin-6-yl)carbamate] | 2360 | 1340 | 2220 |  |
|  |  | CC(C)OC(=O)Nc1cccc(-c2cn3cc(NC(=O)OC(C)C)cnc3n2)c1 [Compound 21] | 187 | 1970 | 1050 |  |
| 54 | 255 | CN(C)c1cnc2nc(-c3cc(NC(=O)N4CC(F)C4)ccc3F)cn2c1 [Compound 593] |  |  |  | EC50 [1, 4]: 160 nM |
| > 50000 | > 25000 | Nc1cnc2nc(-c3cccc(NC(=O)N4CCCC4)c3F)cn2c1 [Compound 580] |  |  |  |  |
| 3260 | 7230 | CC(=O)Nc1ccc(F)c(-c2cn3cc(NC(=O)OC(C)(C)C)cnc3n2)c1 [Compound 529, tert-butyl (2-(5-acetamido-2-fluorophenyl)imidazo[1,2-a]pyrimidin-6-yl)carbamate] |  |  |  | EC50 [1, 4]: > 50000 nM |
|  |  | COCCOC(=O)Nc1ccc(Cl)c(-c2cn3cc(-c4ccsc4)cnc3n2)c1 [Compound 34] | 492 | 258 | 750 |  |
|  |  | CS(=O)(=O)Nc1ccc(F)c(-c2cn3cc(Br)cnc3n2)c1 [Compound 316, N-(3-(6-bromoimidazo[1,2-a]pyrimidin-2-yl)-4-Fluorophenyl)methanesulfonamide] | > 50000 | > 25000 | > 50000 |  |
|  |  | CC(C)OC(=O)Nc1cnc2nc(-c3cc(NC(=O)N4CC(Cl)C4)ccc3F)cn2c1 [Compound 291] | 206 | 390 | 968 |  |
|  |  | CCN(C)C(=O)Nc1ccc(F)c(-c2cn3cc(NC(=O)OC(C)C)cnc3n2)c1 [Compound 9] | 191 | 2480 | 1320 |  |
|  |  | CON(C)C(=O)Nc1cccc(-c2cn3cc(NC(=O)OC(C)C)cnc3n2)c1 [Compound 215] |  |  |  | EC50 ([1]; inhibition of proliferation): 1320 nM; EC50 ([2]; inhibition of proliferation): 181 nM; EC50 ([3]; axenic amastigotes, inhibition of proliferation): 533 nM |
|  |  | CON(C)C(=O)Nc1ccc(F)c(-c2cn3cc(NC(=O)OC(C)C)cnc3n2)c1 [Compound 221] | 177 | 249 | 1060 |  |
|  |  | CC(C)OC(=O)Nc1cnc2nc(-c3cc(NC(=O)N4CC(O)C4)ccc3F)cn2c1 [Compound 288] | 33800 | 7690 | > 50000 |  |

| EC50 ([2]; Trypanosoma brucei) [nM] | EC50 [3, 5] [nM] | Compound | EC50 [2, 6] [nM] | EC50 [3, 7] [nM] | EC50 [1, 8] [nM] | also measured |
| --- | --- | --- | --- | --- | --- | --- |
| 17200 | > 25000 | CN(C(=O)N1CCCC1)c1ccc(F)c(-c2cn3cc(N)cnc3n2)c1 [Compound 558] |  |  |  | EC50 [1, 4]: > 50000 nM |
| > 50000 | > 25000 | O=CNc1ccc(F)c(-c2cn3cc(Br)cnc3n2)c1 [Compound 531, N-(3-(6-bromoimidazo[1,2-a]pyrimidin-2-yl)-4-fluorophenyl)formamide] |  |  |  |  |
|  |  | O=C(Nc1ccc(Cl)c(-c2nc3ncc(-c4ccccc4)cn3c2F)c1)N1CCCC1 [Compound 39] | 74.5 | > 3400 | 180 |  |
|  |  | Cc1nc(C)c(C(=O)Nc2ccc(F)c(-c3cn4cc(C5CC5)cnc4n3)c2)o1 [Compound 339, N-(3-(6-cyclopropylimidazo[1,2-a]pyrimidin-2-yl)-4-fluorophenyl)-2,4-dimethyloxazole-5-carboxamide] | 80 | 85 | 272 |  |
| 84 | 641 | O=C(Nc1ccc(F)c(-c2cn3cc(F)cnc3n2)c1)N1CCCC1 [Compound 514] |  |  |  | EC50 [1, 4]: 1640 nM |
|  |  | CC(C)OC(=O)Nc1cnc2nc(-c3cccc(NC(=O)c4nccs4)c3)cn2c1 [Compound 11] | 659 | 3800 | 5000 |  |
|  |  | COC(=O)Nc1ccc(-c2cnc3nc(-c4cc(NC(=O)c5ccc(C)o5)ccc4Cl)cn3c2)cc1 [Compound 27, methyl (4-(2-(2-chloro-5-(5-methylfuran-2-carboxamido)phenyl)imidazo[1,2-a]pyrimidin-6-yl)phenyl)carbamate] | 589 | 35 | 110 |  |
|  |  | Cc1nc(C)c(C(=O)Nc2ccc(F)c(-c3cn4cc(-c5ccc(CCO)cn5)cnc4n3)c2)o1 [Compound 350] | 53 | 16 | 128 |  |
| > 50000 | > 25000 | CN1CCN(C(=O)Nc2ccc(F)c(-c3cn4cc(Br)cnc4n3)c2)CC1 [Compound 516] |  |  |  | EC50 [1, 4]: 21000 nM |
| 212 | 1140 | O=C(Nc1ccc(F)c(-c2cn3cc(NC(=O)C(F)(F)F)cnc3n2)c1)N1CCCC1 [Compound 566, N-(4-fluoro-3-(6-(2,2,2-trifluoroacetamido)imidazo[1,2-a]pyrimidin-2-yl)phenyl)pyrrolidine-1-carboxamide] |  |  |  | EC50 [1, 4]: 12000 nM |
| 12100 | > 25000 | CC(=O)Nc1ccc(F)c(-c2cn3cc(NC(C)=O)cnc3n2)c1 [Compound 567, N-(2-(5-acetamido-2-fluorophenyl)imidazo[1,2-a]pyrimidin-6-yl)acetamide] |  |  |  | EC50 [1, 4]: > 50000 nM |
| > 50000 | > 25000 | CC(=O)Nc1ccc(F)c(-c2cn3cc(N)cnc3n2)c1 [Compound 569] |  |  |  |  |
| 36200 | > 25000 | CC(C)(C)OC(=O)Nc1cnc2nc(-c3cccc(NC(=O)N4CCCC4)c3F)cn2c1 [Compound 579] |  |  |  | EC50 [1, 4]: > 50000 nM |
|  |  | CC(C)OC(=O)Nc1cnc2nc(-c3cc(NC(=O)c4ccco4)ccc3F)cn2c1 [Compound 12, isopropyl (2-(2-fluoro-5-(furan-2-carboxamido)phenyl)imidazo[1,2-a]pyrimidin-6-yl)carbamate] | 65.6 |  |  |  |
|  |  | CNc1ccc(-c2cnc3nc(-c4cc(NC(=O)N5CCCC5)ccc4Cl)cn3c2)cc1 [Compound 26, N-(4-chloro-3-(6-(4-(methylamino)phenyl)imidazo[1,2-a]pyrimidin-2-yl)phenyl)pyrrolidine-1-carboxamide] | 23.3 | 57 | 104 |  |
|  |  | CC(C)OC(=O)Nc1cnc2nc(-c3cccc(NC(=O)C4CC4)c3)cn2c1 [Compound 42] | 1700 |  |  |  |
|  |  | O=C(Nc1ccc(F)c(-c2cn3cc(Br)cnc3n2)c1)c1ccccc1 [Compound 197] | 491 | 2490 |  |  |
| 13500 | 7370 | O=C(Nc1ccc(F)c(-c2cn3cc(Br)cnc3n2)c1)N1CCOCC1 [Compound 515] |  |  |  |  |
|  |  | CC(C)OC(=O)Nc1ccc(F)c(-c2cn3cc(NC(=O)OC(C)C)cnc3n2)c1 [Compound 40] | 185 |  |  |  |
| 414 |  | Cc1nc(C)c(C(=O)Nc2ccc(F)c(-c3cn4cc(-c5ccc(CCO)cn5)cnc4n3)c2)o1 [Compound 585, N-(4-fluoro-3-(6-(5-(2-hydroxyethyl)pyridin-2-yl)imidazo[1,2-a]pyrimidin-2-yl)phenyl)-2,4-dimethyloxazole-5-carboxamide] |  |  |  |  |
